The values below come from patent US20240199755A1, “ANTAGONISTS AND AGONISTS OF THE TRANSFERRIN RECEPTOR-2 FOR USE IN THE TREATMENT OF DISEASES OF THE BONE” (Kymab Limited, priority 2018, published 2024).

The target of experiment [1] is T1, Tfr2-ECD (Mus musculus, UniProt Q9JKX3).
T1 construct: full-length extracellular domain (ECD, aa 103-798) of murine Tfr2; His (N); MBP (N); c3 (protease site between MBP and ECD) (N); made in house; host or cells: Sf9 insect cells (baculovirus, pOCC211-Tfr2-ECD)
T1 sequence (Q9JKX3 103-798): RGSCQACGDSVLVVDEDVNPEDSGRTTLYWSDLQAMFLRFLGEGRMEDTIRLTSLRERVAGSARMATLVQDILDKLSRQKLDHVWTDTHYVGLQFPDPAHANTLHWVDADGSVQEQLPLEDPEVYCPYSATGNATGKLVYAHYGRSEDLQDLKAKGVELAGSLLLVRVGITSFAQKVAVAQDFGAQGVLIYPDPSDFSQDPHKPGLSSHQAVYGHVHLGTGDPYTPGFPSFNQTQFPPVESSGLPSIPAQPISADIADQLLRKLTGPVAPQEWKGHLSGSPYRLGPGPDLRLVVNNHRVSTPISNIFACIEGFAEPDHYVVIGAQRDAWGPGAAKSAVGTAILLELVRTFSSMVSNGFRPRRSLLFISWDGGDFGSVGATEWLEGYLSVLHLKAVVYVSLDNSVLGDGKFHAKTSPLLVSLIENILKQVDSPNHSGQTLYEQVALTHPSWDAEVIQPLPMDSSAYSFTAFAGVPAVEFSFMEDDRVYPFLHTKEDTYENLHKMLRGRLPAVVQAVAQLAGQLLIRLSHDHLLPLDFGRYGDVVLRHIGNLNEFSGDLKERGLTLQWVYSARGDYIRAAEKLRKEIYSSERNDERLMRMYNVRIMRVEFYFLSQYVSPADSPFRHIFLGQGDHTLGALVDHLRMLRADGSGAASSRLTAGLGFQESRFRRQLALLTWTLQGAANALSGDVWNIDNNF
As to the kind of experiment: SPR binding of holo-Tf and BMP receptors to Tfr2-ECD immobilized on the sensor chip. Conditions: increasing holo-Tf concentrations without intermediate regeneration. Set-up: species or system murine. As to the method:
For this purpose, Tfr2-ECD is immobilized on a Series S Sensor Chip C1 (GE Healthcare), by means of coupling the amino groups at 25° C. The carboxyl groups on the chip surface are activated for 7 minutes using a mixture of 196 mM 1-ethyl-3-(3-dimethylaminopropyl) carbodiimide-hydrochloride and 50 mM n-hydroxysuccinimide at a flow rate of 10 μl/min. Subsequently, 5 μg/ml Tfr2-ECD, diluted with sodium acetate buffer (pH 4.5), is injected at a flow rate of 5 μl/min up to a relative occupancy of 200 RU. Non-reacted groups are inactivated by injecting 1 M thanolamine-HCl (pH 8.5) for 7 minutes at a flow rate of 10 μl/min. In order to prepare a reference surface, the same procedure is carried out but without Tfr2-ECD being injected.
The binding assays are carried out at 37° C. at a flow rate of 30 μl/min. Each analyte is diluted by a running buffer (HBS-P, pH 7.4 together with 50 nM FeCl3). […] The values of the binding level are read out, relative to the baseline, 10 s before the end of the injection and are corrected with respect to the molar mass. […] The binding parameters are determined using the Biacore™ T100 evaluation software 2.03. […]
For binding analysis, an injection of analyte for 240 s or 300 s over a Tfr2-ECD surface was followed by 1000 s dissociation. The values of the binding levels were recorded from referenced signals 10 s before the end of injection relative to baseline response. […]

The target in experiment [2] is T2, BMP-2 binding to Tfr2-ECD (Homo sapiens, UniProt P12643).
T2 construct: full-length extracellular domain (ECD, aa 103-798) of murine Tfr2; His (N); MBP (N); c3 (protease site between MBP and ECD) (N); host or cells: Sf9 insect cells (Tfr2-ECD)
T2 sequence (P12643 283-396): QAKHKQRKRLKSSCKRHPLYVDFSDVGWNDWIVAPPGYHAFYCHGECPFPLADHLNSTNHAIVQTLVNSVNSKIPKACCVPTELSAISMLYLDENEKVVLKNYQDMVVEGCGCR
As to the kind of experiment: SPR competition / sequential injection experiments on Tfr2-ECD surface. The following applies: sequential injection of BMP-2 and holo-Tf. The method, then:
The binding analysis was performed at 37° C. at a flow rate of 30 μl/min. […] In some experiments, 500 mM NaCl were used to reduce potential non-specific binding. […] Concentration-dependent binding of holo-Tf was performed without intermediate regeneration.

For experiment [3], the system named is Sost mRNA expression in osteoblasts. The experiment is described as follows: Sost mRNA expression (qPCR) in ex vivo differentiated osteoblasts after anisomycin. The class given is cell-based, mice. Conditions: 100 nM anisomycin, 24 h. As to the method: Primary murine osteoblasts were differentiated from the bone marrow using standard osteogenic medium in DMEM with 10% FCS, 1% penicillin/streptomycin (Life Technologies, Germany). RNA was isolated at various time points and day 7 osteoblasts were used for immunofluorescence analysis of Tfr2 and for the deep sequencing analysis.
(§1) Signaling studies: day 7 differentiated cells were treated with 50 ng/ml BMP-2, BMP-4 or BMP-6 for 0, 20, and 40 min and lysed in protein lysis buffer (at least two independent experiments with 3 n each). Anisomycin was used to activate MAPK signaling on day 7 differentiated osteoblasts. Cells were treated with 100 nM anisomycin for 20 min for subsequent protein analysis. For RNA isolation and detection of gene expression, cells were treated with different doses of anisomycin for 24 h (two independent experiments with 3 n each).
RNA from cell cultures was isolated with the High Pure RNA Isolation Kit (Roche) and RNA from the bones of mice was isolated by crushing flushed bones (femur and tibia) in liquid nitrogen and collecting the bone powder in Trifast (Peqlab, Germany). Other organs were homogenized directly in Trifast using an ultraturrax (IKA, Germany). […] The results were calculated using the ΔΔCT method and are presented in x-fold increase relative to β-actin (or GAPDH where indicated) mRNA levels.
(In general: Quantitative PCR measures a nucleic acid by following its amplification.)

Experiment [4] concerns ERK (pERK) and p38 (pp38) signaling in osteoblasts. The experiment is described as follows: Western blot of ERK and p38 activation in osteoblasts after anisomycin. The class given is cell-based, mice. Conditions: 100 nM anisomycin for 20 min. The method, then:
as §1
Cells were lysed in a buffer containing 20 mM Tris/HCl pH 7.4, 1% SDS, and a protease inhibitor (complete mini, Roche, Germany). To isolate protein from tissues, the protein fraction of the Trifast procedure was used and further processed according to the manufacturer's protocol. The protein concentration was determined using the BCA method (Pierce, Germany). Twenty μg of heatdenatured protein was loaded onto a 10% gel, separated, and transferred onto a 0.2 μm nitrocellulose membrane (Whatman, Germany). […]
(A western blot detects proteins with antibodies after separation by electrophoresis.)

Experiment [5] has as its system bone mass of Tfr2-/- mice. The experiment is described as follows: Anisomycin treatment of WT and Tfr2-/- mice. The class given is in vivo. Conditions: 5 mg/kg anisomycin for 3 weeks.

For the molecule “Holo-Tf: holo-transferrin, the only known Tfr2 ligand”, in experiment [1], the “Kd value of holo-Tf binding to Tfr2” value is “micromolar range”. The “Competition with BMP-2 for binding to Tfr2” value in experiment [2] is recorded as “did not compete”.

On to `COc1ccc(C[C@H]2NC[C@H](O)[C@H]2OC(C)=O)cc1` [anisomycin], for which the “Increase of Sost mRNA expression” value in experiment [3] (Tfr2 osteoblasts) was found to be 19 fold. The “Increase of Sost mRNA expression” value in experiment [3] (WT osteoblasts) is given as 14 fold. Moreover, in experiment [4], the “ERK and p38 phosphorylation” value was “induced ERK and p38 phosphorylation”. Also, the “Osteoclast numbers (Oc.S/BS)” value in experiment [5] was “not altered”. Besides, in experiment [5] (Tfr2-/- mice), the “Bone volume (BV/TV of the fourth lumbar vertebrae)” value is “decreased bone volume back to WT levels”, the “Osteoblast numbers (N.Ob/B.Pm)” value is “reduced” and the “Serum levels of sclerostin” value is “increased”.
